# Test system: Phytophthora capsici
# Assay: Titer plate growth inhibition test on Phytophthora capsici zoospores in potato dextrose broth
# Assay type: cell-based
# Conditions: final concentration 100 ppm; cultured at 27° C. for 3 days; absorbance at 600 nm vs non-treated section
# Procedure: Next, test examples are shown. A non-treated in Test Example 1 means a section in which the same operation as in a treated section is performed except that Compound A is not used. After dispensing 1 μL of a dimethyl sulfoxide solution containing a predetermined concentration of Compound A into wells of a titer plate (96 wells), 150 μL of a potato dextrose broth containing zoospores of Phytophthora capsici was dispensed, and the mixture was prepared so as to have a final concentration of Compound A of 100 ppm and defined as a treated section. In addition, a non-treated section was prepared in other wells. The plate was cultured at 27° C. for 3 days to proliferate Phytophthora capsici […], and then the absorbance at 600 nm of each well of the titer plate was measured and defined as the growth degree of Phytophthora capsici. Based on the growth degree, the efficacy was calculated using “Formula 1”. Efficacy(%)=100×(X−Y)/X “Formula 1” • X: Growth degree of bacteria in non-treated section • Y: Growth degree of bacteria in treated section A test was performed according to Test Example 1 using sodium salt monohydrate of Compound A in place of Compound A. As a result, the efficacy was 90%. A test was performed according to Test Example 1 using Compound B in place of Compound A. As a result, the efficacy was 64%.
row,SMILES,Efficacy [%]
1,"O=C(O)COc1ncccc1Oc1ccc(F)cc1Cl [Compound A, 2-{[3-(2-Chloro-4-fluorophenoxy)pyridin-2-yl]oxy}acetic acid]",100
2,"CCOC(=O)COc1ncccc1Oc1ccc(F)cc1Cl [Compound B, 2-{[3-(2-chloro-4-fluorophenoxy)pyridin-2-yl]oxy}acetic acid ethyl ester]",64
